What was measured:
[1] = molecular target: T1, FhCL1 (Fasciola hepatica, UniProt Q7JNQ9); test: biochemical; parameters: fluorogenic peptide-AMC hydrolysis (Z-VLK-AMC FhCL1, Tos-GPR-AMC FhCL3), initial rates, 5 min preincubation
T1 construct: gene CL1
T1 sequence (Q7JNQ9 108-326): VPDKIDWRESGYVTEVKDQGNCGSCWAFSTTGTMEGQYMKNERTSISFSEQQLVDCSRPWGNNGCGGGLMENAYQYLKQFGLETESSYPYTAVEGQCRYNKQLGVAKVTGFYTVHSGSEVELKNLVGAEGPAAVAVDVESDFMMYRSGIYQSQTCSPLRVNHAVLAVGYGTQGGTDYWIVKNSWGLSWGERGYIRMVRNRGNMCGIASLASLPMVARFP
Protocol: (§1) A 10 mM stock of each evaluated compound was prepared in dimethylsulfoxide (DMSO). Enzyme activity assays were conducted to evaluate the inhibitory capacity of the different compounds. FhCL1 and FhCL3 were used at nanomolar concentrations to measure initial rates during the first 10 min of the assay and compounds were tested at a moderate fixed dose of 10 μM. Briefly, each enzyme and compound were preincubated 5 minutes in a 96-well plate in 0.1M sodium phosphate buffer pH 6, 1 mM DTT and 1 mM EDTA at room temperature. The reaction was initiated by the addition of 20 μM of substrate, a synthetic peptide conjugated to the fluorophore 7-amino-4-methylcoumarin (AMC). Enzyme activity was measured by the increase in AMC fluorescence as peptide substrates were hydrolyzed (Z-VLK-AMC for FhCL1 and Tos-GPR-AMC for FhCL3) at an excitation wavelength of 340 nm and emission wavelength of 440 nm using a spectrofluorometer (Varioskan Thermo). Enzyme activity was expressed as RFU/s (relative fluorescence units of AMC released per unit of time). Each compound was tested in duplicate. A progress curve without enzyme was performed to control for non-catalyzed reactions between substrates and inhibitors and a spectrum from 300 to 450 nm wavelength was done for each inhibitor to verify that none of the compounds has optical activity in the measurement range. The percentage of enzyme inhibition was calculated as: 100 - (vi/vo) x 100, where vi and vo correspond to the initial rate of AMC fluorescence increase (RFU/s) with and without inhibitor, respectively. We evaluated forty flavonoids from three structural clusters of our own chemistry library as inhibitors of FhCL1 and FhCL3. Cluster I contained twenty-six chalcones modified in ring B (C1-C26, Fig 1A), cluster II contained naphtolchalcone derivatives (C27-C35, Fig 1B) and cluster III was composed of flavones modified in ring B (C36-C40, Fig 1B). Initially, we screened the compounds at a low concentration of 10 μM measuring initial rates during the first 10 min, finding activities ranging from 0% to 75% enzyme inhibition (Fig 1).

[2] = molecular target: T2, FhCL3 (Fasciola hepatica, UniProt B3TM67); test: biochemical; parameters: fluorogenic peptide-AMC hydrolysis (Z-VLK-AMC FhCL1, Tos-GPR-AMC FhCL3), initial rates, 5 min preincubation; details: read-out: % inh. FhCL3
T2 construct: gene CL3
T2 sequence (B3TM67 88-306): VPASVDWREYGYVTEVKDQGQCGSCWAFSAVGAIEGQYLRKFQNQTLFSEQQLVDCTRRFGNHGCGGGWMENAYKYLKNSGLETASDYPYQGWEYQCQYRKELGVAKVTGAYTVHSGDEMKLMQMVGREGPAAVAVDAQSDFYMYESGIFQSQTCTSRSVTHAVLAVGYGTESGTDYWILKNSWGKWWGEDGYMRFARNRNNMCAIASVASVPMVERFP
Protocol: as §1

[3] = molecular target: T3, FhCL1 (Fasciola hepatica, UniProt Q7JNQ9); test: biochemical; parameters: fluorogenic peptide-AMC hydrolysis (Z-VLK-AMC FhCL1, Tos-GPR-AMC FhCL3), initial rates, 5 min preincubation; remark: listed apart in the source
T3 construct: gene CL1
Protocol: as §1

[4] = molecular target: T4, FhCL3 (Fasciola hepatica, UniProt B3TM67); test: biochemical; parameters: fluorogenic peptide-AMC hydrolysis (Z-VLK-AMC FhCL1, Tos-GPR-AMC FhCL3), initial rates, 5 min preincubation; details: read-out: % inh. FhCL3; remark: listed apart in the source
T4 construct: gene CL3
Protocol: as §1

[5] = molecular target: T3, FhCL1; test: fluorogenic Z-VLK-AMC enzyme assay, % inhibition at […]; type: biochemical
[6] = molecular target: T4, FhCL3; test: fluorogenic Tos-GPR-AMC enzyme assay, % inhibition at […]; type: biochemical

| SMILES | inhibition at 10 µM [1] [%] | inhibition at 10 µM [2] [%] | other results |
| --- | --- | --- | --- |
| O=C(/C=C/c1ccco1)c1ccccc1O [C23] | 57 ± 8 | 4 ± 10 |  |
| O=C(/C=C/c1cccc2ccccc12)c1c(O)ccc2ccccc12 [C34] |  |  | inhibition at 10 µM [3]: 75 ± 4%; inhibition at 10 µM [4]: 65 ± 6% |
| O=C(/C=C/c1ccc(Cl)cc1)c1ccccc1O [C10] |  |  | inhibition at 10 µM [5]: 63% |
| O=c1c(O)c(-c2ccc(O)c(O)c2)oc2cc(O)cc(O)c12 [C40, Quercetin] |  |  | inhibition at 10 µM [3]: 15 ± 8%; inhibition at 10 µM [4]: 8 ± 1% |
| O=C(/C=C/c1cccs1)c1ccccc1O [C24] | 52 ± 5 | 9 ± 11 |  |
| O=C(/C=C/c1ccc2ccccc2c1)c1c(O)ccc2ccccc12 [C35] | 67 ± 3 | 44 ± 6 | inhibition at 10 µM [5]: > 50%; inhibition at 10 µM [6]: > 50% |
| O=C(/C=C/c1ccccc1)c1ccc2ccccc2c1 [C27] |  | 13 ± 4 | inhibition at 10 µM [5]: 65% |
| O=C(/C=C/c1ccccn1)c1ccccc1O [C22] | 54 ± 7 | 0 |  |

Second part, led by results:

| inhibition at 10 µM [1] [%] | inhibition at 10 µM [2] [%] | SMILES | other results |
| --- | --- | --- | --- |
| 5 ± 1 | 8 ± 4 | O=c1cc(-c2ccccc2)oc2ccccc12 [C36] |  |
| 42 ± 6 | 32 ± 8 | O=C(/C=C/c1cccc2ccccc12)c1ccccc1O [C32] |  |
| 65 ± 6 | 29 ± 5 | O=C(/C=C/c1ccc2ccccc2c1)c1ccc2ccccc2c1O [C33] |  |
| 62 ± 2 | 38 ± 7 | O=C(/C=C/c1ccc2ccccc2c1)c1ccccc1 [C30] |  |
| 61 ± 2 | 41 ± 5 | O=C(/C=C/c1ccc2ccccc2c1)c1ccccc1O [C31] |  |
| 38 ± 3 | 39 ± 5 | O=C(/C=C/c1cccc2ccccc12)c1ccccc1 [C28] |  |
| 0 | 17 ± 1 | O=c1cc(-c2ccc(Cl)cc2)oc2ccccc12 [C37] |  |
| 20 ± 7 | 0 | COc1ccc(-c2cc(=O)c3ccccc3o2)cc1 [C39] |  |
| 17 ± 9 | 27 ± 2 | O=C(CC(CC(=O)c1ccccc1)c1cccc2ccccc12)c1ccccc1 [C29] |  |
| 21 ± 10 | 19 ± 3 | O=c1cc(-c2ccc(Br)cc2)oc2ccccc12 [C38] |  |

— paper PMC4962987, “Identification of Chalcones as Fasciola hepatica Cathepsin L Inhibitors Using a Comprehensive Experimental and Computational Approach” (PLoS Neglected Tropical Diseases, 2016)
